# Earlier results, collected in patent US20170035825A1, “FOOD SUPPLEMENT COMPOSITION COMPRISING A CUCUMBER (CUCUMIS SATIVUS) EXTRACT” (NATURALEA SA, priority 2014, published 2017).
# System: uterus explants
compound,measurement,setting,value
"O=C(O)[C@@H]1NC[C@H](O)[C@@H](O)[C@@H]1O [ido-BR1, (2R,3R,4R,5S)-3,4,5-trihydroxypiperidine-2-carboxylic acid]",effect on inflammation at 72 h,72 h,not significant
same,inflammation in the uterus explants,dose-dependent,abrogated inflammation in the uterus explants
